This is an account of results in patent publication US7285555B2, “6-aryl-7-halo-imidazo[1,2-a]pyrimidines as anticancer agents” (Wyeth Holdings Corporation, priority 2003, dated 2007).

One series concerns MAP-rich tubulin. In words: Tubulin polymerization test procedure with MAP-rich tubulin. It counts as biochemical, bovine. The note with it: MAP-rich tubulin with 1 mM GTP, compound 0.3 μM, at 20 min. How it is done: (§1) Medium is RPMI-1640 with L-glutamine, supplemented with 10% heat-inactivated fetal calf serum, 100 units/mL penicillin, and 100 μg/mL streptomycin (Gibco, Grand Island, N.Y.). Microtubule-associated protein (MAP)-rich tubulin, containing about 70% tubulin and 30% MAPs (#ML113), and highly purified tubulin (>99% pure, #TL238), both from bovine brain, are obtained from Cytoskeleton, Inc., Denver, Colo. PEM buffer (80 mM piperazine-N,N′-bis[2-ethanesulfonic acid], pH 6.9, 1 mM ethylene glycol-bis(β-aminoethyl ether)-N,N,N′,N′-tetraacetic acid, 1 mM magnesium chloride) and guanosine 5′-triphosphate (GTP) are also obtained from Cytoskeleton. [^3H]paclitaxel, specific activity 14.7 Ci/mmol, is purchased from Moravek Biochemicals (Brea, Calif.). [^3H]vinblastine, specific activity 9.60 Ci/mmol and MicroSpin G-50 columns are obtained from Amersham Biosciences (Piscataway, N.J.). […] Other reagents are obtained from Sigma (St. Louis, Mo.).
MAP-rich tubulin is dissolved in ice-cold PEM buffer containing 1 mM GTP (GPEM buffer) at a concentration of 1.3 mg/mL. The solution is centrifuged at top speed in an Eppendorf model 5415C microcentrifuge (Brinkmann Instruments, Westbury, N.Y.) for 10 min at 40 immediately before use. The tubulin solution is added to wells of a ½-area 96-well plate (Costar No. 3696, Corning, Inc., Corning, N.Y.) already containing the compounds of interest. Each compound is tested in duplicate at a final concentration of 0.3 μM in a volume of 110 μL per well. The final DMSO concentration in all wells is 0.3%. Control reactions, which receive compound solvent only, are done in quadruplicate. The plate is put in a SpectraMax Plus plate reader (Molecular Devices Corp. Sunnyvale, Calif.) thermostated at 240 and the absorbance of each well at 340 nm, a measure of the appearance of turbidity due to tubulin polymer formation, is determined every minute for 60 minutes. The absorbance at time 0 for each well is subtracted from each of the subsequent absorbance readings for that well, and then the duplicates are averaged.
In this assay, control reactions with MAP-rich tubulin show an S-shaped absorbance profile characterized by three phases: first, a lag phase during which no change in absorbance occurs; second, a polymerization phase in which absorbance increases; and third, a plateau phase in which absorbance has reached a maximum and little or no further change occurs. Polymerization enhancers such as paclitaxel and docetaxel shorten or eliminate the lag phase, increase the rate of the polymerization phase, and often increase the height of the plateau. […] This has been expressed quantitatively in Table 6 by dividing the mean A340 of each sample at 20 min by the mean A340 of the control at 20 min to give a fold enhancement over control. […]

In another series the test system is pure tubulin. In words: Tubulin polymerization test procedure with pure tubulin. The format is biochemical, bovine. The settings on record: pure tubulin without added GTP. How it is done: as §1
The procedure with pure tubulin is similar except for the following changes. […] The supernatant after centrifugation is dispensed to a ½-area 96-well plate already containing compounds. Each compound is tested in duplicate at a final concentration of 24.3 μM. The plate reader μs thermostated at 35°.

The next series deals with HL-60/ADR cells. In words: MTS cytotoxicity test procedure with HL-60/ADR cells. The format is cell-based, human. The note with it: Homo sapiens, HL60/ADR; MTS assay, HL-60/ADR cells, means of 2 independent experiments. The text has this: (§2) Human cancer cell lines, unless otherwise noted, are obtained from the American Type Culture Collection (Rockville, Md.). The following drug-sensitive parental cell lines, and their derived drug-resistant counterparts, are obtained from the originators as listed: (a) S1 (parental line from a subclone of human colon carcinoma line LS174T) and derived S1-M1-3.2 (herein called S1-M1) which expresses the MXR drug transporter protein, are provided by Dr. L. Greenberger, Wyeth Research (Rabindran, S. K., He, H., Singh, M., Brown, E., Collins, K. I., Annable, T., and Greenberger, L. M. Reversal of a novel multidrug resistance mechanism in human colon carcinoma cells by fumitremorgin C. Cancer Res., 58: 5850-5858,1998); (b) parental HL-60 human promyelocytic leukemia line and derived HL-60/ADR, which expresses the MRP1 drug transporter protein, are provided by Dr. M. Center, University of Kansas (McGrath, T., and Center, M. S. Adriamycin resistance in HL60 cells in the absence of detectable P-glycoprotein. Biochem. Biophys. […] J. Biol. Chem., 261: 7762-7770, 1986) via Dr. L. Greenberger, Wyeth Research.
(§3) The MTS assay, which is sold in kit form by Promega (Madison, Wis.; CellTiter 96 AQueous Non-Radioactive Cell Proliferation Assay), is based on the conversion by viable cells, but not by dead cells, of the tetrazolium salt, MTS (3-(4,5-dimethylthiazol-2-yl)-5-(3-carboxymethoxyphenyl)-2-(4-sulphophenyl)-2H-tetrazolium, inner salt), into a water-soluble colored formazan which is detected by spectrophotometry. Compounds are tested at nine concentrations, in order to determine IC50 values. For the test procedure, cells are harvested by trypsinization (or, in the case of non-adherent cells, by simple resuspension), washed, counted and distributed to wells of 96-well flat-bottom microtiter plates at 1000 cells per well in 200 μL of medium. In addition, one row of wells on a separate plate receives cells as above (“time 0” plate). All plates are incubated at 370 in humidified 5% CO2 in air for about 24 hr.
(§4) On day 2, compounds for test are diluted and added to wells. Compounds are dissolved in DMSO at 10 mg/mL. For each compound, nine serial 2-fold dilutions are prepared in DMSO. Ten μL of each dilution in DMSO is transferred to 100 μL of medium, mixed well, and then 5 μL of this dilution is transferred in quadruplicate to wells containing cells. […] Plates are returned to the incubator for three days. At the time of drug addition to the experimental plates, the MTS assay is run on the “time 0” plate.
After three days of culture with test compounds (day 5 overall), the MTS assay is done on all wells of the experimental plates. The absorbance values of the quadruplicate sample wells are averaged and divided by the average of the “time 0” values. […] The nine values for each compound are plotted against concentration, and the concentration that produces a relative color yield half way between the maximum and minimum is taken as the IC50 value.
HL-60/ADR cells overexpress the multidrug resistance protein MRP1 which mediates resistance to some chemotherapeutics (Gottesman, M. M., Fojo, T., and Bates, S. E. Multidrug resistance in cancer: role of ATP-dependent transporters. Nature Rev. Cancer, 2: 48-58, 2002). The IC50 values of example 6 of this invention, as well as reference compounds, on HL-60/ADR are compared to values on the sensitive parental HL-60 line.
For orientation: Formazan colour is commonly taken as a measure of viable cells.

In a further series the test system is S1-M1 cells. The series can be described thus: MTS cytotoxicity test procedure with S1-M1 cells. It counts as cell-based, human. The settings on record: Homo sapiens; MTS assay, S1-M1 cells, means of 2 independent experiments.
Excerpt: as §2, §3, §4
(§5) After three days of culture with test compounds (day 5 overall), the MTS assay is done on all wells of the experimental plates. The absorbance values of the quadruplicate sample wells are averaged and divided by the average of the “time 0” values. […]

The next series has as its system COLO 205 cells. The series can be described thus: MTS cytotoxicity test procedure with COLO 205 cells. It counts as cell-based. The settings on record: Homo sapiens, 72 h, MTS assay, three days of culture. How it is done:
as §3
On day 2, compounds for test are diluted and added to wells. Compounds are dissolved in DMSO at 10 mg/mL. For each compound, nine serial 2-fold dilutions are prepared in DMSO. Ten μL of each dilution in DMSO is transferred to 100 μL of medium, mixed well, and then 5 μL of this dilution is transferred in quadruplicate to wells containing cells. The final high concentration of each compound is typically 1-5 μM. Plates are returned to the incubator for three days. At the time of drug addition to the experimental plates, the MTS assay is run on the “time 0” plate. This gives the “time 0 MTS value” which is related to the number of viable cells per well at the time of drug addition.
After three days of culture with test compounds (day 5 overall), the MTS assay is done on all wells of the experimental plates. The absorbance values of the quadruplicate sample wells are averaged and divided by the average of the “time 0” values. The average of control wells without drug, divided by the average “time 0” value, gives the maximal relative increase in MTS color yield due to cell growth during the final three days of culture. The average of control wells with high drug concentration, divided by the “time 0” value, gives the minimal relative color yield for cells that were completely killed. The nine values for each compound are plotted against concentration, and the concentration that produces a relative color yield half way between the maximum and minimum is taken as the IC50 value.
COLO 205 is a human colon carcinoma cell line that is used for comparative testing of the examples of this invention and several reference compounds (Table 1). This line is sensitive to paclitaxel and vincristine.

In a further series the test system is KB-V1 cells. In words: MTS cytotoxicity test procedure with KB-V1 cells. It counts as cell-based, human. The note with it: Homo sapiens, KB-V1; MTS assay, KB VI cells, means of 2 independent experiments.
Excerpt: as §2
The MTS assay, which is sold in kit form by Promega (Madison, Wis.; CellTiter 96 AQueous Non-Radioactive Cell Proliferation Assay), is based on the conversion by viable cells, but not by dead cells, of the tetrazolium salt, MTS (3-(4,5-dimethylthiazol-2-yl)-5-(3-carboxymethoxyphenyl)-2-(4-sulphophenyl)-2H-tetrazolium, inner salt), into a water-soluble colored formazan which is detected by spectrophotometry. Compounds are tested at nine concentrations, in order to determine IC50 values. For the test procedure, cells are harvested by trypsinization (or, in the case of non-adherent cells, by simple resuspension), washed, counted and distributed to wells of 96-well flat-bottom microtiter plates at 1000 cells per well in 200 μL of medium. […]
as §5

For `CC(=O)O[C@@]12CO[C@@H]1C[C@H](O)[C@@]1(C)C(=O)[C@H](O)C3=C(C)[C@@H](OC(=O)[C@H](O)[C@@H](NC(=O)OC(C)(C)C)c4ccccc4)C[C@@](O)([C@@H](OC(=O)c4ccccc4)[C@H]21)C3(C)C` [Docetaxel, reference compound], the “A340 Compound / A340 Control (fold enhancement over control)” value with MAP-rich tubulin stood at 5.4. For the same compound, the “polymerization of pure tubulin without GTP (in words)” value in the series on pure tubulin is “able to induce polymerization”.

Take `COc1cccc2c1C(=O)c1c(O)c3c(c(O)c1C2=O)C[C@@](O)(C(=O)CO)C[C@@H]3O[C@H]1C[C@H](N)[C@H](O)[C@H](C)O1` [Doxorubicin, reference compound]: the IC50 – broadly, the point on the concentration scale where inhibition reaches its midpoint – with HL-60/ADR cells worked out at 2080 nM; with S1-M1 cells, 2520 nM.

Regarding `Fc1cc(F)c(-c2c(Cl)nc3nccn3c2C2CCCCCC2)c(F)c1` [Example 5, 7-Chloro-5-cycloheptyl-6-(2,4,6-trifluorophenyl)imidazo[1,2-a]pyrimidine], the IC50 in the series on COLO 205 cells came to 207 nM.

On to `O=C1c2c(O)ccc(O)c2C(=O)c2c(NCCNCCO)ccc(NCCNCCO)c21` [Mitoxantrone, reference compound], for which the figures for the IC50 in the series with KB-V1 cells and in the series on HL-60/ADR cells were 1930 nM and 161 nM, respectively.

On to `Fc1cc(F)c(-c2c(Cl)nc3nccn3c2N2CCCCC2)c(F)c1` [Example 2, 7-Chloro-5-piperidin-1-yl-6-(2,4,6-trifluorophenyl)imidazo[1,2-a]pyrimidine], for which, in the series on COLO 205 cells, it took 396 nM to reach half-maximal inhibition (IC50).

Take `Fc1cc(F)c(-c2c(Cl)nc3nccn3c2NCC(F)(F)F)c(F)c1` [Example 3, 7-chloro-N-(2,2,2-trifluoroethyl)-6-(2,4,6-trifluorophenyl)imidazo[1,2-a]pyrimidin-5-amine]: the melting point (as a rule, the temperature, or range, at which the solid turns liquid) lay within 155 to 157 °C. In the series with COLO 205 cells, the IC50 stood at 742 nM.

In turn, `Fc1cc(F)c(-c2c(Cl)nc3nccn3c2N2CCCCCC2)c(F)c1` [Example 1, 5-azepan-1-yl-7-chloro-6-(2,4,6-trifluorophenyl)imidazo[1,2-a]pyrimidine] gave a melting point of 106 to 108 °C. In addition, in the series with COLO 205 cells, the IC50 stood at 259 nM.
